One assay concerns KB. Kind of assay: Cytotoxicity against human KB cells assessed as growth inhibition measured after 3 days by MTT assay. The format is functional, cell-based. To be noted: 72 h. In general terms: Tetrazolium assays rely on reduction of a dye to a coloured formazan, in cell work by metabolically active cells.
Another assay has as its system HepG2. The experiment in a line: Cytotoxicity against human HepG2 cells assessed as growth inhibition measured after 3 days by MTT assay. The format is functional, cell-based. To be noted: HepG2, 72 h.

A word on the IC50: it is the concentration needed to halve the response being measured.

Some results are limits rather than exact numbers.

On to `Cc1ccc(S(=O)(=O)NCc2cn(CC(O)Cn3c4c(c5ccccc5c3=O)C(=O)c3ccccc3-4)nn2)cc1` (stereo unspecified), for which the half-maximal inhibitory concentration (IC50) with KB and in the assay on HepG2 was 115 µM each time. As for `O=C(OCc1cn(CC(O)Cn2c3c(c4ccccc4c2=O)C(=O)c2ccccc2-3)nn1)c1ccc(Br)cc1` (stereo unspecified), the half-maximal inhibitory concentration (IC50) came to 6.28 µM in the assay with KB and 4.27 µM in the assay with HepG2. For `Cc1cn([C@H]2C[C@H](N=[N+]=[N-])[C@@H](CO)O2)c(=O)[nH]c1=O` [ZIDOVUDINE], in the assay on HepG2, the IC50 was above 479 µM. With `Cc1cn([C@H]2C[C@H](n3cc(COC(=O)[C@H](Cc4ccccc4)n4c5c(c6ccccc6c4=O)C(=O)c4ccccc4-5)nn3)[C@@H](CO)O2)c(=O)[nH]c1=O`, the concentration for half-maximal inhibition (IC50) in the assay with KB is 0.49 µM; with HepG2, 0.48 µM.

On to `O=C1c2ccccc2-c2c1c1ccccc1c(=O)n2Cc1cn(CC(O)Cn2c3c(c4ccccc4c2=O)C(=O)c2ccccc2-3)nn1` (stereo unspecified), for which the IC50 was 2.89 µM with KB and 2.29 µM in the assay with HepG2. For `Cc1ccc(NC(=O)c2ccc(Cn3cc(Cn4c5c(c6ccccc6c4=O)C(=O)c4ccccc4-5)nn3)cc2)cc1Nc1nccc(-c2cccnc2)n1` the same measures were 1.56 µM and 2.33 µM. As to `COc1ccc(C(=O)OCc2cn(CC(O)Cn3c4c(c5ccccc5c3=O)C(=O)c3ccccc3-4)nn2)cc1` (stereo unspecified), the IC50 came out at 11.2 µM with KB and 11.9 µM in the assay on HepG2. For `Cc1cn([C@H]2C[C@H](n3cc(Cn4c5c(c6ccccc6c4=O)C(=O)c4ccccc4-5)nn3)[C@@H](CO)O2)c(=O)[nH]c1=O` the same measures were 0.79 µM and 0.64 µM. For `O=C1c2ccccc2-c2c1c1ccccc1c(=O)n2CC(O)Cn1cc(CN2CCOCC2)nn1` (stereo unspecified), in that order: 1.56 µM and 10.2 µM. For the compound `O=C1c2ccccc2-c2c1c1ccccc1c(=O)n2CC(O)Cn1cc(CO)nn1` (stereo unspecified), the IC50 is 2.86 µM with KB and 0.74 µM in the assay on HepG2. For `Cc1ccc(S(=O)(=O)Nc2cccc(-c3cn(CC(O)Cn4c5c(c6ccccc6c4=O)C(=O)c4ccccc4-5)nn3)c2)cc1` (stereo unspecified) the same measures were 89.9 µM and 69.8 µM. For `CC(=O)Nc1cccc(-c2cn(CC(Cn3c4c(c5ccccc5c3=O)C(=O)c3ccccc3-4)OC(C)=O)nn2)c1` (stereo unspecified), in that order: above 234 µM and above 234 µM. For `O=C(OCc1cn(CC(O)Cn2c3c(c4ccccc4c2=O)C(=O)c2ccccc2-3)nn1)c1ccc(Cl)cc1` (stereo unspecified), in that order: 10.5 µM and 9.75 µM.

As for `[N-]=[N+]=NCC(O)Cn1c2c(c3ccccc3c1=O)C(=O)c1ccccc1-2` (stereo unspecified), the values for the IC50 with KB and in the assay on HepG2 were 42 µM and 45 µM, respectively. For `CC(C)C(=O)NCc1cn(CC(O)Cn2c3c(c4ccccc4c2=O)C(=O)c2ccccc2-3)nn1` (stereo unspecified), in that order: 123 µM and 22.1 µM. As for `O=C(NCc1cn(CC(O)Cn2c3c(c4ccccc4c2=O)C(=O)c2ccccc2-3)nn1)c1ccc(Br)cc1` (stereo unspecified), the results for the half-inhibitory concentration (IC50) with KB and with HepG2 were 56.7 µM and 43.8 µM, respectively. For `CC(=O)NCc1cn(CC(O)Cn2c3c(c4ccccc4c2=O)C(=O)c2ccccc2-3)nn1` (stereo unspecified) the same measures were 14.1 µM and 9.04 µM. For `Cc1c2ccncc2c(C)c2c1[nH]c1ccccc12` [ELLIPTECINE] the same measures were 1.26 µM and 1.46 µM. Consider `Nc1cccc(-c2cn(CC(O)Cn3c4c(c5ccccc5c3=O)C(=O)c3ccccc3-4)nn2)c1` (stereo unspecified), for which the IC50 in the assay on KB turned out to be 15.3 µM; in the assay on HepG2, 32 µM. For `O=C1c2ccccc2-c2c1c1ccccc1c(=O)n2CC(O)Cn1cc(CBr)nn1` (stereo unspecified) the same measures were 0.79 µM and 0.76 µM. Take `CC(=O)OCc1cn(CC(Cn2c3c(c4ccccc4c2=O)C(=O)c2ccccc2-3)OC(C)=O)nn1` (stereo unspecified): the IC50 with KB amounted to 18.6 µM; in the assay on HepG2, 19 µM. On to `Cc1cn([C@H]2C[C@H](n3cc(COC(=O)[C@H](CC(C)C)n4c5c(c6ccccc6c4=O)C(=O)c4ccccc4-5)nn3)[C@@H](CO)O2)c(=O)[nH]c1=O`, for which the IC50 in the assay with KB worked out at 0.75 µM; with HepG2, 2.25 µM. For `Cc1cn([C@H]2C[C@H](n3cc(COC(=O)Cn4c5c(c6ccccc6c4=O)C(=O)c4ccccc4-5)nn3)[C@@H](CO)O2)c(=O)[nH]c1=O` the same measures were 26.2 µM and 26.2 µM. For `Cc1cn([C@@H]2C[C@@H](n3cc(COC(=O)[C@@H](Cc4c[nH]c5ccccc45)n4c5c(c6ccccc6c4=O)C(=O)c4ccccc4-5)nn3)[C@H](CO)O2)c(=O)[nH]c1=O` (single isomer, unassigned), in that order: 21.6 µM and 84.5 µM.

Consider `NCc1cn(CC(O)Cn2c3c(c4ccccc4c2=O)C(=O)c2ccccc2-3)nn1` (stereo unspecified), for which the IC50 in the assay with KB turned out to be 50 µM; in the assay with HepG2 it was 195 µM. For `Cc1cn([C@H]2C[C@H](n3cc(COC(=O)[C@H](CO)n4c5c(c6ccccc6c4=O)C(=O)c4ccccc4-5)nn3)[C@@H](CO)O2)c(=O)[nH]c1=O`, in that order: 0.35 µM and 1.18 µM.
